Test results reported in patent US20210300940A1 (Merck Patent GmbH, priority 2018, published 2021).

Tests used:
[1] = target: T1, TLR7 (Homo sapiens, UniProt Q9NYK1); assay: HEK/293 TLR7 Cell Assay; format: cell-based; details: TLR7/NFKb HEK cells, R848 agonist 10 uM final concentration, Steady-Glo readout; read-out: TLR7 potency
T1 construct: expressed in transfected cells; host or cells: HEK/293 cells carrying TLR7 and an NF-kB luciferase reporter
T1 sequence (Q9NYK1 27-1049): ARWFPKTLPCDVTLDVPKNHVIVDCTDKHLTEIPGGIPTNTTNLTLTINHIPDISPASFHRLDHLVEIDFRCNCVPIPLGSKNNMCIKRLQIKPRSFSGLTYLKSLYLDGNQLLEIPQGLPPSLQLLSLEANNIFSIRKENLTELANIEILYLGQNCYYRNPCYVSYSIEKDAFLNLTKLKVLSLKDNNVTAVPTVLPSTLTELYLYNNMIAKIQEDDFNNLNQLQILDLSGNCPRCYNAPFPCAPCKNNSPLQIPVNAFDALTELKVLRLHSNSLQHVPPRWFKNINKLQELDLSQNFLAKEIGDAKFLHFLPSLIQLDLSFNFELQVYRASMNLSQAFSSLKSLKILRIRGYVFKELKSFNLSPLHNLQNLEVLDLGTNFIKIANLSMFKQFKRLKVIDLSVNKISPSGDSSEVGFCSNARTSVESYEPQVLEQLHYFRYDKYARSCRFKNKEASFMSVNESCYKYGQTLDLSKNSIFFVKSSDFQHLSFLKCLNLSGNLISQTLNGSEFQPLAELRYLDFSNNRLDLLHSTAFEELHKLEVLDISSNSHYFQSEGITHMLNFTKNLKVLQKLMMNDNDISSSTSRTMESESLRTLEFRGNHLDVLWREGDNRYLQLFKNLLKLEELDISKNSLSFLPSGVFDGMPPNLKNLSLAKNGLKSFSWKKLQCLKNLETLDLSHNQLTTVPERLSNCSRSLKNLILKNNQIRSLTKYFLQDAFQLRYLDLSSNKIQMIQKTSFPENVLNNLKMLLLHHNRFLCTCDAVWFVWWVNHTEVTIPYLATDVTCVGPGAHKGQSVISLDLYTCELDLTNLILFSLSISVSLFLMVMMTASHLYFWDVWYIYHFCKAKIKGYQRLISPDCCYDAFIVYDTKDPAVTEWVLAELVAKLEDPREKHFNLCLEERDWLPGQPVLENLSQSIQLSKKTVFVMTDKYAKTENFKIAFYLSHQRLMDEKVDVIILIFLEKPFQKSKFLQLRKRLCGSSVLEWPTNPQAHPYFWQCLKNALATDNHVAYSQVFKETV
In short: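 Compounds added to HEK cells expressing TLR7 with an NFκB reporter 30 min ahead of 10 uM R848 challenge; luciferase signal (Steady-Glo) measured after 5 h, cells having been seeded 24 h earlier at 5000 per well.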

[2] = target: T2, TLR8 (Homo sapiens, UniProt Q9NR97); assay: HEK/293 TLR8 Cell Assay; format: cell-based; details: HEK cells, R848 agonist 30 uM final concentration, Steady-Glo readout; read-out: TLR8 potency
T2 construct: expressed in transfected cells; host or cells: HEK/293 reporter cells (NF-kB luciferase)
T2 sequence (Q9NR97 27-1041): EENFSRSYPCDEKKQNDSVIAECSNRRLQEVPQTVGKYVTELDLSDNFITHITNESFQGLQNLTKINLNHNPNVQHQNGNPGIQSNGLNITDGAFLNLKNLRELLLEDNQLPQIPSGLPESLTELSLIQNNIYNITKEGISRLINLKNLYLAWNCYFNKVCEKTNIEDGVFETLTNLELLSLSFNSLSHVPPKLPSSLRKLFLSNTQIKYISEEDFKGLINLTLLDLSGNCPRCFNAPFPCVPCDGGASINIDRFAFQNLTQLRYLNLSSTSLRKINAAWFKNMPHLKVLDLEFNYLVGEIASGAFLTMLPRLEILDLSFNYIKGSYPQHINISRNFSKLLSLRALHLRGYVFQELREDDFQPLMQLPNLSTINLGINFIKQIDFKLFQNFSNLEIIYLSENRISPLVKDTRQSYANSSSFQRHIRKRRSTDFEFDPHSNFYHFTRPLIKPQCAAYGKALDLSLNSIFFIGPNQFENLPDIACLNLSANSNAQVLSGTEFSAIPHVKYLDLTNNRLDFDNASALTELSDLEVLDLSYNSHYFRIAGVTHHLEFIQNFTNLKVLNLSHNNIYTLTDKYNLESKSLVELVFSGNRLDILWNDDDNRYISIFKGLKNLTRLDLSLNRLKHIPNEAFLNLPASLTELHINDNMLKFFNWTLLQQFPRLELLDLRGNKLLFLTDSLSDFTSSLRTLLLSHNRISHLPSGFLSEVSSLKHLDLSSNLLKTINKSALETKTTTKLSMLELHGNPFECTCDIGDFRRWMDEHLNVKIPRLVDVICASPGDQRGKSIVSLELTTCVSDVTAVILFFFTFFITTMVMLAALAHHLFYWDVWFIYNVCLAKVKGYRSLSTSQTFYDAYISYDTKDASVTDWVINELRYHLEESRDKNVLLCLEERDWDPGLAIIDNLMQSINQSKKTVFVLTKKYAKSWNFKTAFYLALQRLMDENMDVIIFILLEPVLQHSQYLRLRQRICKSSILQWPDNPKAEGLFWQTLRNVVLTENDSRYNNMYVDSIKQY

Compound	IC50 [1]	IC50 [2]
C[C@@H]1CN(c2cnc(C(F)(F)F)c3ncccc23)C[C@H](CNC2CCS(=O)(=O)CC2)O1 [Example 384, (1,1-Dioxo-hexahydro-1lambda6-thiopyran-4-yl)-[(2S,6R)-6-methyl-4-(8-trifluoromethyl-[1,7]naphthyridin-5-yl)-morpholin-2-ylmethyl]-amine]	< 0.075 µM	> 0.15 µM
C[C@@H]1CN(c2ccc(C#N)c3nccnc23)C[C@H](CN2CC(O)C2)O1 [Example 216, 8-[(2S,6R)-2-(3-Hydroxy-azetidin-1-ylmethyl)-6-methyl-morpholin-4-yl]-quinoxaline-5-carbonitrile]	< 0.075 µM	> 0.15 µM
C[C@H]1C[C@@H](NC(=O)CN(CCN)CCO)CN(c2ccc(C#N)c3nccnc23)C1 [Example 150, 2-[(2-Amino-ethyl)-(2-hydroxy-ethyl)-amino]-N-[(3R,5S)-1-(8-cyano-quinoxalin-5-yl)-5-methyl-piperidin-3-yl]-acetamide]	< 0.075 µM	< 0.075 µM
C[C@H]1C[C@@H](NC(=O)[C@H](C)N2CCN(C)CC2)CN(c2ccc(C#N)c3nccnc23)C1 (single isomer, unassigned) [Example 91]	< 0.075 µM	< 0.075 µM
C[C@H]1C[C@@H](NCCN2CCOC2=O)CN(c2ccc(C(F)(F)F)c3ncccc23)C1 [Example 29, 3-{2-[(3R,5S)-5-Methyl-1-(8-trifluoromethyl-quinolin-5-yl)-piperidin-3-ylamino]-ethyl}-oxazolidin-2-one]	< 0.075 µM	< 0.075 µM
N#Cc1ccc(N2C[C@H](NC(=O)C3(F)CCNC3)C[C@H](C(F)(F)F)C2)c2cccnc12 (single isomer, unassigned) [Example 163]	< 0.075 µM	< 0.075 µM
C[C@@H]1CN(c2cnc(C#N)c3ncccc23)C[C@H](C(=O)NCC2(F)CCNCC2)O1 [Example 300, (2R,6R)-4-(8-Cyano-[1,7]naphthyridin-5-yl)-6-methyl-morpholine-2-carboxylic acid (4-fluoro-piperidin-4-ylmethyl)-amide]	< 0.075 µM	0.075 to 0.15 µM
C[C@H]1C[C@@H](NC(=O)CC2CN(C)C2)CN(c2cc(F)c(C#N)c3ncccc23)C1 [Example 59, N-[(3R,5S)-1-(8-Cyano-7-fluoro-quinolin-5-yl)-5-methyl-piperidin-3-yl]-2-(1-methyl-azetidin-3-yl)-acetamide]	0.075 to 0.15 µM	> 0.15 µM
CC(=O)NCCN[C@@H]1C[C@H](C(F)(F)F)CN(c2ccc(C#N)c3ncccc23)C1 [Example 44, N-{2-[(3R,5S)-1-(8-Cyano-quinolin-5-yl)-5-trifluoromethyl-piperidin-3-ylamino]-ethyl}-acetamide]	< 0.075 µM	0.075 to 0.15 µM
COc1ncc(N2C[C@@H](C)C[C@@H](N)C2)c2nccnc12 [Example 199, (3R,5S)-1-(5-Methoxy-pyrido[3,4-b]pyrazin-8-yl)-5-methyl-piperidin-3-ylamine]	0.075 to 0.15 µM	< 0.075 µM
C[C@H]1C[C@@H](NC(=O)CCN2CCOCC2)CN(c2ccc(C#N)c3nccnc23)C1 [Example 194, N-[(3R,5S)-1-(8-Cyano-quinoxalin-5-yl)-5-methyl-piperidin-3-yl]-3-morpholin-4-yl-propionamide]	0.075 to 0.15 µM	< 0.075 µM
C[C@@H]1CN(c2cnc(C#N)c3ncccc23)C[C@H](C(=O)NC2CCC(N3CCOCC3)CC2)O1 (stereo partly drawn) [Example 277, (2R,6R)-4-(8-Cyano-[1,7]naphthyridin-5-yl)-6-methyl-morpholine-2-carboxylic acid (4-morpholin-4-yl-cyclohexyl)-amide]	< 0.075 µM	< 0.075 µM
CN1CCC(F)(CNC(=O)[C@@H]2CN(c3ccc(C#N)c4nccnc34)C[C@H](C(F)(F)F)O2)CC1 (single isomer, unassigned) [Example 360]	< 0.075 µM	< 0.075 µM
C[C@@H]1CN(c2ccc(C#N)c3nccnc23)C[C@H](CN2CC[C@H](O)C2)O1 [Example 220, 8-[(2S,6R)-2-((S)-3-Hydroxy-pyrrolidin-1-ylmethyl)-6-methyl-morpholin-4-yl]-quinoxaline-5-carbonitrile]	< 0.075 µM	> 0.15 µM
